# In patent US7598400B2, “AMPO spin traps” (The Ohio State University Research Foundation, priority 2004, dated 2009):
# Where two headings read alike, the source gives them in different places.
# What was measured:
# [1] = Decay kinetics of nitrone-superoxide adducts (EPR, riboflavin-light system); format: physicochemical; settings: pH 7.2 and 23° C.; this work
# Procedure: Decay Kinetics In a typical decay kinetic study, 50 μL solution containing 25 mM of the nitrone and 100 μM riboflavin was irradiated for 3 min in the cavity. […] All data were the average of 3 or more measurements.
# [2] = Rate of superoxide radical trapping by competitive trapping versus DEPMPO (EPR); settings: based on kDEPMPO=58 M^−1 s^−1
# Procedure: The nitrone 5-carbamoyl-5-methyl-1-pyrroline N-oxide (AMPO) was successfully synthesized and characterized. […] Resulting spin adducts for each of these radicals gave unique spectral profiles. […] Theoretical analyses using density functional theory calculations at the B3LYP/6-31=G**/B3LYP6-31G* level were performed on AMPO and its corresponding suproxide product. Calculations predicted the presence of intramolecular H-bonding in both AMPO and its superoxide adduct, and these interactions were further confirmed by an X-ray structure (in the case of AMPO) of a novel and the amido nitrone compound 2-amino-5-carbamoyl-5-methyl-1-pyrroline N-oxide (NH2-AMPO).
# (§1) Trapping of O2^•−. Typical O2^•− trapping experiments utilized the riboflavin-light system as described in the Kinetics section. An alternative O2^•− generating system used a solution of 0.4 mM xanthine and 0.5 unit/mL xanthine oxidase, or 10 nM PMA and 8×10^5 neutrophil cells in 25 mM AMPO. Spectra were acquired over a period of 15 min.
# [3] = Partition coefficient n-octanol/water (buffer); format: physicochemical; settings: for Kp (n-octanol/water): pH 7.2, shaken for 2 hrs at 37° C.
# [4] = pH 7.2 and 23° C.; literature reference; cited from earlier work
# [5] = value of the competitor DEPMPO used as basis of the calculation; cited from earlier work
# [6] = Spin trapping of radicals detected by EPR spectroscopy; settings: hydroxyl, superoxide, C-centered, sulfite, and tert-butoxyl radicals
# Procedure: Miscellaneous Spin Trapping Studies Fenton reaction system. A 50 μL 0.1 M phosphate buffer solution containing 30 mM AMPO, 1% H2O2 and 65 mM FeSO4 was transferred to a 50 μL capillary tube and EPR spectrum of the hydroxyl adduct was recorded over 5 min time period.
# Trapping of SO3^•−, CO2^•− and CH3.CHOH radicals. 50 μL 0.1 M phosphate buffer solution containing 30 mM AMPO, 1% H2O2 and 100 mM of the respective radical source NaHCO2, Na2SO3, or ethanol with 65 mM freshly prepared FeSO4. The mixture was then transferred to 50 μL capillary tube and EPR spectrum of the adduct was recorded over a 5 min time period.
# Trapping of GS. and t-BuO. radicals. 50 μL 0.1 M phosphate buffer solution containing 30 mM AMPO and 100 mM GSSG or (CH3)3CO—OC(CH3)3. The mixture was then transferred to 50 μL capillary tube and the radicals were generated by UV photolysis. EPR spectrum of the adduct was recorded over a 5 min time period.
# as §1
Compound,kl /10^−4s^−1 (first order decay of nitrone-superoxide adduct) [1],Rate of superoxide radical trapping (k) [2],Kp (n-octanol/water) [3],kl /10^−4s^−1 (first order decay of nitrone-superoxide adduct) [4],"t1/2/min, first order approximation half-life of nitrone-superoxide adduct [4]","Rate of superoxide radical trapping (k), reference value [5]",Spin trapping of radicals by EPR [6],partition coefficient in an n-octanol/buffer system (comparison in words) ([3]; n-octanol/buffer system)
"CCOC(=O)C1(C)CCC=[N+]1[O-] (stereo not shown) [EMPO, 5-ethoxycarbonyl-5-methyl-1-pyrroline N-oxide]",11.6 ± 0.5 10^−4s^−1,44 M⁻¹ s⁻¹,0.33,–,–,–,–,–
CC1(C)CCC=[N+]1[O-] [DMPO],–,–,0.06,129.0 10^−4s^−1,0.9 min,–,–,–
"CCOP(=O)(OCC)C1(C)CCC=[N+]1[O-] (stereo not shown) [DEPMPO, 5-diethoxyphosphoryl-5-methyl-1-pyrroline N-oxide]",7.5 ± 0.7 10^−4s^−1,–,0.16,8.13 10^−4s^−1,14.2 min,58 M⁻¹ s⁻¹,–,–
"CC1(C(N)=O)CCC=[N+]1[O-] (stereo not shown) [AMPO, 5-carbamoyl-5-methyl-1-pyrroline N-oxide]",14.0 ± 1.2 10^−4s^−1,38 M⁻¹ s⁻¹,0.03,–,–,–,has been demonstrated,comparable value to those of DMPO and DEPMPO
